Laboratory results: patent US20030087830A1, “Low molecular weight components of cartilage, complexes of metals with amino acids, DI-peptides and analogs thereof; processes for preparation and therapeutic uses thereof” (priority 2001, published 2003)
Residues, ends and D or L forms follow the SMILES beside them.

Tests used:
[1] = test system: Endothelial cells (HUVEC, BAEC); test: Endothelial cell proliferation; assay type: cell-based, human / bovine; conditions: for EC50: 48 hours, copper equivalent, NA = less than 50% at 1.25 mM copper equivalent, read-out: EC proliferation (EC50 mM)
Protocol: (§1) Endothelial and tumor cell proliferation assays were performed to determine the ability of test samples to inhibit endothelial cell proliferation (antiangiogenic activity), normal cell proliferation,and tumor cell proliferation.
(§2) Endothelial cells (Human umbilical vein endothelial cells (HUVEC), bovine aortic endothelial cells (BAEC)), skeletal muscle cells, human dermal fibroblasts (all from Clonetics, Walkersville, Md.) were respectively maintained in EBM-2, MDEM, SKGM and FGFM-2 complete media according to manufacturer's instructions. Tumor rat glioblastoma cell line (C6) was maintained in DMEM (Sigma, Oaksville, Ontario) supplemented with 10% fetal calf serum (FCS) and antibiotics in 5% CO2. Briefly, cells seeded in 96-well sterile tissue culture dishes were treated with increasing concentrations of different test samples for a period of 48 hours at 37° C. Cell number was then evaluated by a calorimetric assay using the cell proliferation reagent tetrazolium salt and the fluorimetric assay using DNA dye (Hoescht) according to the procedure established by the manufacturer (Boehringer Mannhein). The conversion of these tetrazolium salts into formazan occurs only in metabolically active cells. The percentage of cell inhibition was determined by comparison to untreated cells.
(§3) According to the endothelial cell proliferation assay, the relative effectiveness of two compounds is compared by reference to the EC50 thereof. The EC50 is the concentration of compound at which the number of endothelial cells is reduced by 50% as compared to control. The efficacy of the test samples in EVT is established by the percent of eggs with altered angiogenesis at a given inhibitor dose of 0.6 mg of copper equivalent (see FIG. 6 for examples). A comparison of the antiangiogenic activity of the compounds of the present invention with divalent metal salts (CuCl2, MgCl2, ZnCl2, CoCl2) and uncoupled alpha-amino acids, alpha-imino acids, dipeptides, and nitrogenated molecules comprising a carboxylic acid group, such as creatine, is provided to illustrate that the formation of the amino acid-copper complex gives rise to complexes having antiangiogenic activity.

[2] = test system: Striated muscle cells (skeletal muscle cells); test: Striated muscle cell proliferation; assay type: cell-based; conditions: 48 hours; free amino acids and Glu-Trp 2.5 mM, CuCl2 1.25 mM
Protocol: as §1, §2

[3] = test system: Endothelial cells; test: Endothelial cell migration assay (VEGF, modified Boyden chamber); assay type: cell-based; conditions: for Cell Migration (% inhibition): copper complexes, concentration not given, VEGF, 4.5 hours
Protocol: The endothelial cell migration assay was performed to determine the ability of test samples to inhibit the chemotaxic activity of vascular endothelial growth factor (VEGF;R/D System, MN) using a modified Boyden chamber (Transwell™, Corning/Costar). Briefly, polyvinylidene difluoride filters (PVDF) were coated with Pronectin F (Biosources, CA), a constituent of basement membrane barrier. Boyden chambers were assembled by adding VEGF to the culture media in the lower chamber (chemoattractant). Endothelial cells suspended in cultured media in the presence or the absence of the test samples were added to the upper chamber. The chambers were then incubated for a period of 4.5 hours at 37° C. At the end of the incubation period, the cells from both side of the PVDF membrane were fixed with 3.7% formaldehyde. Cells from the upper surface of the membrane were mechanically removed, and the cells remaining on the underside of the membrane were stained with crystal violet (0.5%; Sigma). Cells were then carefully rinsed and the dye fixed to the cells was quantified with a microplate reader ([…]) after its solubilization with a solution of 50% citric acid (0.1M) in water and 50% ethanol.

[4] = test system: Endothelial cells; test: Endothelial cell tubule formation assay (tubulogenesis); assay type: cell-based; set-up: key to Tubulogenesis: 0: Numerous capillary-like tube forming pentagonal network; +: Decrease of capillary-like tubes; ++: Dramatic decrease of capillary-like tubes; +++: Absence of capillary-like tubes
Protocol: The endothelial cell tubule formation assay is a semi-quantitative assay that was performed to determine the ability of test samples to inhibit this multi-step process, which involves cell adhesion, migration, differentiation and growth, using a commercial kit (Chemicon). Briefly, endothelial cells were seeded on solid gel of Ecmatrix™ (Chemicon), basement proteins prepared from the Engelbreth Holm-Swarm (EHS) mouse tumor in microplate in a E-99 media (Sigma) supplemented with 5% FBS and VEGF (50 ng/ml) in the presence or absence of the test sample. Cells were incubated for a period of 24 hours at 37° C. Pictures were taken on the entire tissue culture dish using a binocular microscope for further evaluation.

[5] = test system: blood vessel formation in the vitelline membrane of chick embryo; test: Embryonic Vascularization Test (EVT); assay type: in vivo; conditions: for EVT activity (in words): in vivo
Protocol: The Embryonic Vascularization Test (EVT) was performed to determine the ability of test samples to inhibit the formation of new blood vessels (antiangiogenic activity).
The normal development of a chick embryo involves the formation of an external vascular system located in the vitelline membrane which carries nutrients from the vitellus (yolk) to the developing embryo. When placed onto the vitelline membrane, antiangiogenic substances can inhibit the blood vessel formation that occurs in the vitelline membrane. Briefly, methylcellulose discs (an inert solid and transparent matrix) containing different test samples were placed on the external border of the vascular perimeter of the vitelline membrane, where the angiogenic process occurs. Vascularization was assessed 24 hours after disc deposition, and results were expressed as the percent of embryos in which blood vessel formation was affected. The blood vessel formation was considered affected when its growing path was either deviated, or diminished or when there was no growth observed beyond the disc as compared to the negative control. The results are expressed as 0, +, and ++ where 0 is for a lower response than 25 percent of the eggs; + is for a response between 25 and 50 percent; and ++ is for an antiangiogenic response observed in more than 50 percent of the eggs.
as §3

[6] = test system: human dermal fibroblasts; test: Fibroblast proliferation; assay type: cell-based; conditions: 48 hours; free amino acids and Glu-Trp 2.5 mM, CuCl2 1.25 mM
Protocol: as §1, §2

[7] = test system: Lewis lung carcinoma clone M27; test: Lewis Lung Carcinoma metastatic mouse model (LLC); assay type: in vivo, C57BL/10 female mice; conditions: for Antimetastatic activity (% inhibition) (at 2.5 mg/kg of Cu-complex): intraperitoneal daily for two weeks, lung surface metastases
Text: The Lewis Lung Carcinoma mouse model (LLC) was used to determine the ability of different test samples to inhibit the formation of metastases within the lung. The Lewis lung carcinoma clone M27, with a high metastatic potential to the lung, was established by Dr P. Brodt (Brodt P, Characterization of two highly metastatic variants of Lewis lung carcinoma with different organ specificities. Cancer Res., 46: 2442, 1986). This model is well established and is known for its predictive correlation between in vitro and in vivo activity. Briefly, LLC cells were transplanted subcutaneously in the axillary region of the right flank of C57BL/10 female mice (Charles River Inc.) When the primary tumor reached a size of 0.5-1.0 cm^3 (day 10 post-inoculation), the tumor was carefully separated from the surrounding healthy tissues. Treatment with different test samples started the day following tumor removal (day 11 post-inoculation). Saline or different test samples were administered daily for two weeks by intraperitoneal injection (0.2 ml of each dose). As previous experiments had shown that a period of approximately two weeks after removal of the primary tumor was sufficient to obtain an average of 30 to 50 nodules on the lung surface, animals were sacrificed in a CO2 chamber two weeks later. Following autopsy, both lungs were removed, weighed and fixed in 10% Bouin's fixative. Lung surface metastases were counted using a stereomicroscope (4×).

[8] = test system: bFGF-stimulated blood vessel formation in Matrigel; test: Matrigel in vivo angiogenesis assay; set-up: species or system C57B1/6 mice; conditions: for Matrigel in vivo % inhibition: intra-peritoneal daily 10 days
Protocol: The Matrigel™ in vivo assay was performed to determine the ability of test samples to inhibit blood vessel formation (antiangiogenic activity) and to establish their bioavailability in vivo.
Briefly, liquid Matrigel™ (Becton Dickinson, Bedford, Mass.) was maintained at 4° C. and mixed thoroughly for at least 3 hours with 1,500 ng/ml basic fibroblast growth factor (bFGF) (R&D Systems, Minneapolis, Minn.) used as the primary angiogenic stimulus. The mixture (0.5 ml) was injected subcutaneously into the ventral midline of C57B1/6 mice, and treatment with different test samples or saline solution was initiated the same day. Additional animals were also injected with Matrigel™ containing no bFGF to serve as baseline controls. The animals were treated daily for a 10 day period (intra-peritonealy, 0.2 ml of each dose). At day 11, animals were injected with FITC-dextran 20 min prior to euthanizing treated mice. Matrigel™ gels were removed along with underlying peritoneum and prepared for FITC-dextran detection by fluorimetry. The concentration of FITC-dextran in the gels was calculated from a known concentration of FITC-dextran using a standard curve. The FITC-dextran content of the gels from compound-treated animals and controls was expressed as a percent of the positive bFGF-treated controls after the baseline control of FITC-dextran levels were subtracted from all groups.

[9] = Affinity of the amino acid with copper; assay type: physicochemical
[10] = copper complexes, concentration not given, VEGF 50 ng/ml, 24 hours
[11] = activity at 0.6 mg equivalent Copper

Row | Affinity of the AA with Cooper [9] | Molecule | EC50 [1] [mM] | EC50 [2] [mM] | Cell migration activity (in words) [3] | Cell Migration (% inhibition) [3] [%] | Tubulogenesis activity (in words) [4] | Tubulogenesis [4, 10] | EVT (% of inhibition) ([5]; 0.6 mg copper equivalent, percent of embryos with affected blood vessel formation, 24 hours after disc deposition) [%] | EVT (% of inhibition) [5, 11] | EC50 [6] [mM] | Antimetastatic activity (% inhibition) (at 2.5 mg/kg of Cu-complex) [7] [%] | Anti-metastatic activity in vivo (in words) ([7]; mouse, in vivo) | Endothelial cell proliferation activity (in words) [1] | inhibition at 2500 µM ([3]; Endothelial cell, 2.5 mM free (not complexed) ligand) [%] | Tubulogenesis ([4]; 2.5 mM free (not complexed) ligand) | EVT activity (in words) [5] | Matrigel in vivo % inhibition ([8]; 7.0 mg/Kg equivalent copper) [%] | Matrigel in vivo antiangiogenic activity (in words) ([8]; mouse, in vivo) | Matrigel in vivo % inhibition ([8]; 1.4 mg/Kg equivalent copper) [%]
1 |  | (Glu—Trp)2-Cu [Compound 33] | 0.23 | 0.47 | important activity | 96 | important activity | +++ | 60 | ++ (++ more than 50% of inhibition) | 0.66 | 44 | more active than the free di-peptide |  |  |  |  |  |  | 
2 |  | N[C@@H](CCC(=O)O)C(=O)N[C@@H](Cc1c[nH]c2ccccc12)C(=O)O [Free Glu-Trp, glutamyl-tryptophane, reference compound] (H-Glu-Trp-OH) |  |  | did not show any activity |  | did not show any activity |  |  | 0 (0 non-active (less than 25% of inhibition)) |  | 22.8 |  | almost inactive | 10 | 0 | almost inactive |  |  | 
3 | 19.4 | N[C@@H](Cc1c[nH]cn1)C(=O)[O-].N[C@@H](Cc1c[nH]cn1)C(=O)[O-].[Cu+2] [Compound 10, L-His:Cu:L-His] | 0.9 |  | did not show any activity | 65 | did not show any activity | 0 |  | 0 (0 non-active (less than 25% of inhibition)) |  | 63.0 |  | inactive |  |  | inactive | 63.4 | more active than compound 6 | 
4 | 15.4 | C[C@@H](O)[C@H](N)C(=O)[O-].C[C@@H](O)[C@H](N)C(=O)[O-].[Cu+2] [Compound 5, L-Thr:Cu:L-Thr] | 0.3 |  | important activity | 90 | important activity | ++ |  | ++ (++ more than 50% of inhibition) | 1.34 |  |  |  |  |  |  | 59.4 |  | 47.7
